The text below walks through data of patent US9926293B2, “Multivalent RAS binding compounds” (THE TRUSTEES OF COLUMBIA UNIVERSITY IN THE CITY OF NEW YORK, priority 2014, dated 2018).

In one test the target is T1, KRAS^G12D I36N (Homo sapiens, UniProt P01116, G12D/I36N).
T1 construct: His6 (N); made in house
Briefly: Microscale thermophoresis on binding-site mutant KRAS^G12D I36N. The following applies: MST, 31MEW79 experiment of b434. The method, then: (§1) Mutagenesis of the KRAS^G12D plasmid was performed using a QuikChange XL site-directed mutagenesis kit from Agilent technologies, according to the manufacturer's protocol. Primers were designed using the Agilent QuikChange Primer Design application and purchased from Integrated DNA Technologies. KRAS^G12D D38A forward primer 5′ ATATGATCCAACAATAGAGGCTTCCTACAGGAAGCAAGTAG 3′ (SEQ ID NO: 66), KRAS^G12D D38A reverse primer 5′ CTACTTGCTTCCTGTAGGAAGCCTCTATTGTTGGATCATAT 3′ (SEQ ID NO: 67), KRAS^G12D I36N forward primer 5′ CATTTTGTGGACGAATATGATCCAACAAATGAGGATTCCTACAGG 3′ (SEQ ID NO: 68), KRAS^G12D I36N reverse primer 5′ CCTGTAGGAATCCTCATTTGTTGGATCATATTCGTCCACAAAATG 3′ (SEQ ID NO: 69). DNA sequencing was performed to confirm the correct amino acid sequence of the construct (GeneWiz, Inc.).
KRAS^G12D (250 μM) in 25 mM HEPES, 100 mM sodium chloride, 2 mM TCEP with 20 mM EDTA and 1 mM GppNHp was shaken at 220 rpm at 30° C. to remove the endogenous nucleotide, The solution was placed on ice for 2 minutes prior to the addition of 65 mM MgCl2. After an additional 10 minutes incubation on ice, 200 uL of a 10 uM solution of KRAS^G12D was combined with 200 uL of a 20 uM solution of NT-647-NHS-ester dye (from a 652.4 μM stock). The protein/dye mixture was rotated at 4° C. for 30 minutes, before being separated from the excess dye and buffer exchanged into 25 mM Tris, 100 mM sodium chloride, 2 mM TCEP, and 5 mM MgCl2 via a nap-5 column. The test compounds were arrayed across a 16-point dilution series consisting of 1.5% DMSO with 25 mM Tris, 100 mM NaCl, 2 mM TCEP, 5 mM MgCl2 and 0.05% tween-20. Thermophoretic movement of the fluorescently labeled protein with the inhibitors was performed using a Monolith NT.115 (Nanotemper Technologies). RALA and RHOA were purchased commercially from Abcam (RALA CN:ab102555, RHOA CN:ab101594). […]
For orientation: In MST a laser heats a spot of the sample, and binding alters the fluorescence response.

Test [1] has as its target T2, GTP-loaded KRAS^G12D / CRAF RBD interaction (Homo sapiens, UniProt P01116, G12D).
T2 construct: made in house; host or cells: Escherichia coli BL21-Gold (DE3)
Put plainly: In vitro RAS pulldown with CRAF RBD. The format is biochemical. The following applies: in vitro pull-down. The method, then: A 20 μM solution of KRAS^G12D in 50 mM HEPES, 200 mM sodium chloride, 2 mM TCEP with 1 mM EDTA and 1 mM GTP was gently rotated at 25° C. to remove the endogenous nucleotide. Magnesium chloride was then added to 5 mM and the resulting solution was rotated at 4° C. for 4 hours. The GTP-loaded KRAS^G12D was then diluted to 20 nM and incubated with the inhibitors and 5 μL of CRAF-RBD agarose beads (Millipore), 10 μL of RAF1-RBD agarose beads (EMD Millipore, CN: 14-278), or 100 nM RALGDS (Abcam, CN: ab132590) with 20 μL of glutathione beads for 2 hours. The beads were separated from the lysate via a 0.1 μm filter spin cup and centrifuging at 14,000-15,000 rpm. They were then washed twice with PBS before the addition of 1×SDS. The quantity of RAS in the samples was then analyzed using the previously described Western blotting procedure.
(§2) A set of 45 of the closest matches (ranging from 0.85-0.97 Tanimoto coefficient) were synthesized (based on Scheme 2 with appropriate modifications) and tested for their ability to bind to KRAS^G12D by differential scanning fluorimetry.

The target in the next test is T3, KRAS^G12D D38A (Homo sapiens, UniProt P01116, D38A/G12D).
T3 construct: His6 (N); made in house
Briefly: Microscale thermophoresis on binding-site mutant KRAS^G12D D38A. How it is done:
as §1
KRAS^G12D (250 μM) in 25 mM HEPES, 100 mM sodium chloride, 2 mM TCEP with 20 mM EDTA and 1 mM GppNHp was shaken at 220 rpm at 30° C. to remove the endogenous nucleotide, The solution was placed on ice for 2 minutes prior to the addition of 65 mM MgCl2. After an additional 10 minutes incubation on ice, 200 uL of a 10 uM solution of KRAS^G12D was combined with 200 uL of a 20 uM solution of NT-647-NHS-ester dye (from a 652.4 μM stock). The protein/dye mixture was rotated at 4° C. for 30 minutes, before being separated from the excess dye and buffer exchanged into 25 mM Tris, 100 mM sodium chloride, 2 mM TCEP, and 5 mM MgCl2 via a nap-5 column. The test compounds were arrayed across a 16-point dilution series consisting of 1.5% DMSO with 25 mM Tris, 100 mM NaCl, 2 mM TCEP, 5 mM MgCl2 and 0.05% tween-20. Thermophoretic movement of the fluorescently labeled protein with the inhibitors was performed using a Monolith NT.115 (Nanotemper Technologies). RALA and RHOA were purchased commercially from Abcam (RALA CN:ab102555, RHOA CN:ab101594).
as §2

The target in the next test is T4, GTP-loaded KRAS G12D (Homo sapiens, UniProt P01116, G12D).
T4 construct: made in house; host or cells: Escherichia coli BL21-Gold (DE3)
Briefly: Microscale thermophoresis, GTP-loaded KRAS G12D labeled with NT-647-maleimide. It counts as binding. Conditions: read-out: dissociation constant KD. The method, then: Microscale Thermophoresis
KRAS^G12D (250 μM) in 25 mM HEPES, 100 mM sodium chloride, 2 mM TCEP with 20 mM EDTA and 1 mM GppNHp was shaken at 220 rpm at 30° C. to remove the endogenous nucleotide, The solution was placed on ice for 2 minutes prior to the addition of 65 mM MgCl2. […] The protein/dye mixture was rotated at 4° C. for 30 minutes, before being separated from the excess dye and buffer exchanged into 25 mM Tris, 100 mM sodium chloride, 2 mM TCEP, and 5 mM MgCl2 via a nap-5 column. The test compounds were arrayed across a 16-point dilution series consisting of 1.5% DMSO with 25 mM Tris, 100 mM NaCl, 2 mM TCEP, 5 mM MgCl2 and 0.05% tween-20. Thermophoretic movement of the fluorescently labeled protein with the inhibitors was performed using a Monolith NT.115 (Nanotemper Technologies). RALA and RHOA were purchased commercially from Abcam (RALA CN:ab102555, RHOA CN:ab101594).
as §2

The target of another test is T5, KRAS^G12D⋅BODIPY-GTP (Homo sapiens, UniProt P01116, G12D).
T5 construct: made in house; host or cells: Escherichia coli BL21-Gold (DE3)
Put plainly: Nucleotide displacement assay with BODIPY-GTP (fluorescence polarization). Conditions: 2.5 μM KRAS^G12D⋅BODIPY-GTP, 12 hours. The format is binding. How it is done: Nucleotide Displacement Assay
To investigate whether compounds were binding to the same site as GTP, a fluorescent polarization assay was implemented using fluorescently-labeled BODIPY-GTP as a probe. When BODIPY-GTP is free in solution, it has a low polarization. However, when BODIPY-GTP is bound to K-Ras protein, the polarization intensity is high. K-Ras G12D bound to BODIPY-GTP was incubated with different concentrations of ligand or unlabeled GTP or GDP in buffer containing 25 mM Tris-HCl, pH 8, 100 mM NaCl, 5 mM MgCl2, 1 mM EDTA, and 1 mM TCEP. The final concentration of K-Ras G12D bound to BODIPY-GTP in each well was 2.5 μM. The samples were incubated at 25° C. for 12 hours with gentle shaking to allow for the slow intrinsic nucleotide release reaction to take place. The change in fluorescence was measured on a Victor3 plate reader (Perkin Elmer) in 384-well black low-volume plates (Corning, Inc.). The BODIPY-GTP fluorophore was excited at 485 nm and emission was monitored at 535 nm.
(In fluorescence polarisation assays a small probe gives low polarisation when free and higher when bound to something large.)

For a further test, the target named is T6, GppNHp-bound KRAS^G12D (Homo sapiens, UniProt P01116, G12D).
T6 construct: made in house; host or cells: Escherichia coli BL21-Gold (DE3)
Put plainly: Binding to KRAS and measurement of dissociation constants (FIG. 4B-4C), GppNHp-bound. The following applies: read-out: dissociation constant KD.

Another test addresses T7, GDP-bound KRAS^G12D (Homo sapiens, UniProt P01116, G12D).
T7 construct: made in house; host or cells: Escherichia coli BL21-Gold (DE3)
Put plainly: Binding to KRAS and measurement of dissociation constants (FIG. 4B-4C), GDP-bound. The following applies: read-out: dissociation constant KD.

pKd: −log10 of the molar value.

Consider `NCCC[C@@H](NC(=O)CN1CCCNCC1)C(=O)NC1Cc2ccccc2C1` [Compound 31MEW79, (R)-2-(2-(1,4-diazepan-1-yl)ethanamido)-5-amino-N-(2,3-dihydro-1H-inden-2-yl)pentanamide], for which the pKd (commonly the Kd on a negative log10 scale, so that one unit is a factor of ten) was 4.33 at KRAS^G12D I36N; 4.08 on KRAS^G12D D38A (MST, 31MEW79 experiment of b434); 4.48 on GTP-loaded KRAS G12D; 2.42 at GppNHp-bound KRAS^G12D; 2.15 on GDP-bound KRAS^G12D. Also, the “CRAF-bound KRAS^G12D” value in test [1] is “dose-dependent decrease”. Further, at KRAS^G12D D38A (KRAS^G12D D38A and I36N vs KRAS^G12D), the loss in affinity was 1.5 to 3.0 fold. Moreover, on KRAS^G12D⋅BODIPY-GTP, the “displacement of BODIPY-GTP” value was “No displacement”.
